Test results as given in PMC10649968, “Structural Basis of the Immunological Cross-Reactivity between Kiwi and Birch Pollen” (Foods, 2023).

Legend:
Act c 8 = biological target: T1, Act c 8 (Actinidia chinensis, UniProt D1YSM4); experiment: 1H-15N HSQC NMR titration (chemical shift perturbations); assay type: binding
T1 construct: gene ypr-10
T1 sequence (D1YSM4 1-159): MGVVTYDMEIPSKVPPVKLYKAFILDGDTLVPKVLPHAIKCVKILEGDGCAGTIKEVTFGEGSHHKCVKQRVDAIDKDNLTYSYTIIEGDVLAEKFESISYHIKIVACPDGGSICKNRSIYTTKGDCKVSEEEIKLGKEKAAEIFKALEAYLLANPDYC

Act d 8 = biological target: T2, Act d 8 (Actinidia deliciosa, UniProt D1YSM5); experiment: as above; assay type: binding
T2 construct: gene ypr-10
T2 sequence (D1YSM5 1-157): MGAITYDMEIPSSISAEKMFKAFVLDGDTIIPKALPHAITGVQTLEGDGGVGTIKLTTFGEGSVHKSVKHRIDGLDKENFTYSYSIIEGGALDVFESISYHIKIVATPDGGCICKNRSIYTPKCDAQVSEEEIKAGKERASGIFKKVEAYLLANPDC

- Kd (Act c 8): 30 mM
- Kd (Act d 8): 5 mM
SMILES: Oc1cccc(O)c1O [pyrogallol]
